pIC50: −log10 of the molar value.
Legend:
786-O = experiment: FDG-PET imaging of 786-O xenografts; type: in vivo, mice; conditions: 786-O xenografts in CD-1 nude mice, three daily i.p. doses (11.6 mg/kg)
Description: FIG. 5A-E In vivo monitoring and efficacy of compound 47. […] 786-O, a renal clear cell carcinoma with a naturally occurring VHL mutation, were implanted subcutaneously into the flanks of CD-1 nude mice. Representative axial cross section of a mouse prior to treatment (left) and following three daily i.p. injections with compound 85 (11.6 mg/kg)(right), overlaid over CT scan. (B) Quantitatively, compound 85 inhibits FDG-PET in mouse xenografts. Quantification of FDG-PET inhibition by compound 85 as determined by the 90th percentile ROI for percent injected dose per gram (% ID/g) (*p<0.01). (C) Compound 85 is not toxic to normal tissues. (a, b) Kidney of vehicle- and compound 85-treated animals. (c, d) Spleen of vehicle- and compound 85-treated animals. (e, f) Liver of vehicle- and compound 85-treated animals. (g, h) Heart of vehicle- and compound 85-treated animals. (i, j) Salivary gland of vehicle- and compound 85-treated animals. (k, l) Brain of vehicle- and compound 85-treated animals. Scale bar represents 100 microns. (D) Compound 85 delays tumor growth. 786-O tumor-bearing mice were treated daily with vehicle or compound 85 (11.6 mg/kg for the first 3 days, followed by 7.8 mg/kg for the next week)(*p<0.005). (E) Compound 85 delays tumor growth in cells that have lost VHL. ACHN cells expressing a short hairpin RNA to VHL were implanted subcutaneously into the flanks of immunocompromised mice. Once tumors reached an average of >20 mm^3, mice were treated daily with compound 85 or vehicle (*p<0.05). All error bars represent the standard error of the mean.
In Vivo Studies and Immunohistochemistry. All experiments were approved by Stanford's Administrative Panel on Laboratory Animal Care (APLAC) and in accordance with both institutional and national guidelines. Five million cells were implanted subcutaneously into the flanks of nude mice (4-6 weeks old)(Charles River Laboratories). Tumors were measured with calipers. Volume was calculated by the following formula: width^2×0.5 length. […]

RCC4 [1] = experiment: 3H-2-deoxyglucose uptake, RCC4; type: cell-based, human; conditions: 3H-2-deoxyglucose, two days of treatment, 5 μM
Description: One hundred thousand cells were plated into 6-well plates. The following day, the cells were treated with vehicle or drug and incubated for the indicated time. Cells were washed twice in phosphate buffered saline and low glucose media was added for 30 minutes. Cells were then incubated with 0.5 microCi of tritiated-2-deoxyglucose and incubated for an hour at 37° C. Cells were washed twice in PBS and then lysed in 0.2 N NaOH and 0.2% SDS. Lysates were transferred to scintillation tubes with scintillation fluid and quantified by scintillation counter.
One hundred thousand cells were plated per well in a six-well plate. The next day, cells were treated with the indicated concentration of drug and incubated for the indicated time. Cells were then washed twice with phosphate-buffered saline, incubated in low-glucose medium for 30 minutes, and ^3H-2-deoxyglucose (0.5 μCi) was added in 1 ml of glucose-free media for an additional hour. Cells were washed twice in PBS and lysed (0.2 N NaOH and 0.2% sodium dodecyl sulfate). Glucose uptake was quantified with a scintillation counter.

GLUT1 = target: T1, GLUT1 (Homo sapiens, UniProt P11166); experiment: Affi-gel affinity binding of GLUT1 from cell lysates; conditions: salt elution, immunoblot; for binding of GLUT1 to Affi-gel immobilized compound, RCC4 lysates: RCC4 cell lysates
T1 construct: endogenous in cells; host or cells: RCC4 and RCC4/VHL cell lysates
T1 sequence (P11166 1-492): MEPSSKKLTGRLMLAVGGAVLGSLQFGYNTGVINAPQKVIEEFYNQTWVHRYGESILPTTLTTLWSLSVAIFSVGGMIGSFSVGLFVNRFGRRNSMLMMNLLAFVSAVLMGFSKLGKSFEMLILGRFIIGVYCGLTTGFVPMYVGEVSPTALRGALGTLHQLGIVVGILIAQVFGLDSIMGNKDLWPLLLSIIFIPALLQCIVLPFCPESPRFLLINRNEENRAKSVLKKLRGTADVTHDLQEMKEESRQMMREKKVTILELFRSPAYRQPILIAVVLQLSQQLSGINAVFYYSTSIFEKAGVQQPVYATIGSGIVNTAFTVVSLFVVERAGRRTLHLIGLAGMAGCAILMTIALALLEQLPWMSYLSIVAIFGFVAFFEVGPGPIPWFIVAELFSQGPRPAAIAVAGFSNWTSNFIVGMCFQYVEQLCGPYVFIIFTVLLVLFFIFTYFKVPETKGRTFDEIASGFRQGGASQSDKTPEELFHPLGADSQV
Description: All cells were grown in DMEM+10% FCS. ACHN and ACHN shVHL were a kind gift from George V. Thomas (UCLA). HIF overexpressing clones were described previously. Transfection of RNA oligos were performed with DnarmaFECT Reagent 1 (Dharmcon), according to manufacturer's directions. ON-TARGETplus SMART pools against HIF-1β/ARNT were purchased from Dharmacon. Glut1 was detected with anti-GLUT1 antibody from NeoMarkers/LabVision/Fisher. Pyruvate/lactate levels and hexokinase activity were both measured by fluorometric assay (BioVision and Sigma-Aldrich, respectively). ATP levels were measured by bioluminescence assay (ATP Determination Kit from Molecular Probes/Invitrogen). In vitro kinase activities were performed by Millipore KinaseProfiler. Affi-Gel 10 (BioRad) activated affinity media was coupled to analogs to generate immobilized affinity linkers.
We next wanted to investigate the differential glucose uptake between RCCs with and without VHL treated with compound 47 that subsequently lead to the selective death of VHL-deficient cells. We first examined the message levels of the two main glucose transporters, GLUT1 and GLUT2 by quantitative real-time PCR. GLUT1 is an inducible, high-affinity glucose transporter, while GLUT2 is the glucose transporter responsible for basal glucose uptake. Other family members, such as GLUT3 and GLUT4, are not expressed in renal cells. GLUT1 was highly expressed in cells lacking VHL, while cells with VHL had very low levels of GLUT1 (FIG. 3I). In contrast, GLUT2 was highly expressed in cells with wild-type VHL. Cells deficient in VHL had very low levels of GLUT2 that could barely be detected (FIG. 3J). […] In order to more directly test this, we performed binding assays to see whether compound 47 was directly interacting with GLUT1. An analog of compound 47, compound 116 was synthesized and linked to an immobilized linker (Affi-gel 10). Cell lysates from both RCC4 and RCC4/VHL were incubated with the Affi-gel-compound 47. […]

RCC4/VHL [2] = experiment: XTT IC50 assay, selectivity RCC4 versus RCC4 with VHL-reintroduced; type: cell-based, human; conditions: selectivity ratio of XTT IC50 values, RCC4 vs RCC4/VHL
Method in brief: (§1)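 RCC4 parental and VHL-reintroduced RCC4/VHL cells (DMEM, 10% FCS) treated with serially diluted drug for four days. Viability by XTT (0.3 mg/mL) with N-methyl dibenzopyrazine methyl sulfate, 1–2 h at 37 °C, absorbance 450 nm; IC50 by linear interpolation.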

RCC4 [3] = experiment: XTT IC50 / viability assay, RCC4 cells; type: cell-based, human; conditions: for pIC50: Homo sapiens, RCC4, 96 h, XTT assay, four days
Method in brief: as §1

RCC4 [4] = experiment: Clonogenic survival, RCC4; type: cell-based, human; conditions: RCC4 (VHL-deficient), 5 μM, 10 days
Description: Three hundred cells were plated into 60-mm tissue culture dishes in DMEM. The next day, cells were treated with vehicle or drug and were further incubated for an additional 10 days. […] The stain was removed and plates were washed in deionized water. Colonies were quantified. All conditions were measured in triplicate and all experiments were performed in triplicate.
For 2,3-bis[2-methoxy-4-nitro-5-sulfophenyl]-2H-tetrazolium-5-carboxanilide (XTT) assays, five thousand cells were plated in 96-well plates. The next day, vehicle (DMSO) or drug was added by serial dilution. […] Metabolism of XTT was quantified by measuring the absorbance at 450 nm. IC50s were calculated using linear interpolation. For clonogenic survival assays, three hundred cells were plated per 60 mm tissue culture dish. The cells were allowed to attach overnight and then treated with vehicle or drug for […]. […] All conditions were measured in triplicate and each experiment was done in duplicate or triplicate. To determine necrosis, cells were treated with drug for a given time point. Media and cells were collected, centrifugated, and resuspended in 0.4% trypan blue (Invitrogen). Live and dead cells were counted on a hematocytometer.

RCC4/VHL [5] = experiment: Clonogenic survival, RCC4/VHL; type: cell-based, human; conditions: RCC4/VHL (wild-type VHL), 5 μM, 10 days
Description: Three hundred cells were plated into 60-mm tissue culture dishes in DMEM. The next day, cells were treated with vehicle or drug and were further incubated for an additional 10 days. After 10 days, the media was removed and colonies were fixed and stained in 95% ethanol and 0.1% crystal violet for 15 minutes. The stain was removed and plates were washed in deionized water. Colonies were quantified. All conditions were measured in triplicate and all experiments were performed in triplicate.
For 2,3-bis[2-methoxy-4-nitro-5-sulfophenyl]-2H-tetrazolium-5-carboxanilide (XTT) assays, five thousand cells were plated in 96-well plates. The next day, vehicle (DMSO) or drug was added by serial dilution. Four days later, media were aspirated, XTT solution (0.3 mg/ml of XTT (Sigma), 2.65 mg/ml N-methyl dibenxopyrazine methyl sulfate (Simga) in phenol red-free media) was added, and the plates were incubated at 37° C. for 1-2 hours. Metabolism of XTT was quantified by measuring the absorbance at 450 nm. IC50s were calculated using linear interpolation. For clonogenic survival assays, three hundred cells were plated per 60 mm tissue culture dish. The cells were allowed to attach overnight and then treated with vehicle or drug for 14 days. […] All conditions were measured in triplicate and each experiment was done in duplicate or triplicate. […] Live and dead cells were counted on a hematocytometer.

binding of GLUT1 to Affi-gel immobilized compound, RCC4 lysates (GLUT1)	SMILES	Ratio (RCC4:RCC/VHL) (RCC4/VHL [2])	pIC50 (RCC4 [3])	further results
–	Cc1cccc(Nc2nc(-c3ccncc3)cs2)c1 [4-(pyridin-4-yl)-N-(m-tolyl)thiazol-2-amine, reference compound]	–	–	glucose uptake within tumors by FDG-PET (786-O): did not have a decrease in glucose uptake; glucose uptake in VHL-deficient RCC4 cells (RCC4 [1]): did not decrease glucose uptake
did not bind	Cc1cccc(Nc2nc(-c3ccnc(-c4cn(CCCCCCN)nn4)c3)cs2)c1 [4-{2-[1-(6-aminohexyl)-1H-1,2,3-triazol-4-yl]-4-pyridinyl}-N-(3-methylphenyl)-1,3-thiazol-2-amine, reference compound]	–	–	binding of GLUT1 to Affi-gel immobilized compound, RCC4/VHL lysates (GLUT1; RCC4/VHL cell lysates): did not bind
bound	NCCOCCOCCOCCOCCOCCOCC#Cc1ccc(S(=O)(=O)NCc2ccc(C(=O)Nc3cccnc3)cc2)cc1 [Example 100, 4-[({[4-(21-Amino-4,7,10,13,16,19-hexaoxahenicos-1-yn-1-yl)phenyl]sulfonyl}amino)methyl]-N-(3-pyridinyl)benzamide]	a (“a” reflects a ratio of RCC4/RCC-VHL+ ranging from 1 to 10)	4.70 to 6.00	–
–	COc1cccc(S(=O)(=O)NCc2ccc(C(=O)Nc3cccnc3)cc2)c1 [Example 18, 4-((3-Methoxyphenylsulfonamido)methyl)-N-(pyridin-3-yl)benzamide]	b (“b” reflects from 10 to 100)	4.70 to 6.00	clonogenic survival of RCC4 (RCC4 [4]): specifically toxic to RCC4 cells; clonogenic survival of RCC4/VHL (RCC4/VHL [5]): relatively unaffected; number of RCC4 cells compared to RCC4/VHL (XTT metabolic activity) (RCC4 [3]; four days of treatment, concentration-dependent, FIG. 2A): significant decrease in the number of RCC4 cells
